Publication PMC4884984, “Identification of approved and investigational drugs that inhibit hypoxia-inducible factor-1 signaling” (Oncotarget, 2016)
Read-outs that look alike come from different tables or passages of the source.

Tests used:
[1] = tested on: hypoxia response element-beta-lactamase (HRE–bla); test: HRE-bla reporter gene assay in ME-180 cells; type: cell-based, human; conditions: Homo sapiens
[2] = tested on: ME-180 cells; test: Cancer cell proliferation assay, ME-180; type: cell-based; conditions: Homo sapiens; for Emax: read-out: ME-180 3-Day Viability Efficacy
[3] = tested on: HIF-1α–NanoLuc; test: HIF-1α–NanoLuc reporter gene assay (qHTS primary and confirmatory screens); type: cell-based, human; conditions: Homo sapiens
[4] = tested on: HIF-1α–NanoLuc HCT116 cells; test: Viability (Luc): CellTiter-Glo counter screen in HIF-1α–NanoLuc cells; type: cell-based, human; conditions: Table S7, 1% O2, 18 h
[5] = tested on: HCT116 cells; test: Cancer cell proliferation assay, HCT116; type: cell-based, human; conditions: for Emax / IC50: Homo sapiens; for Emax: read-out: HCT116 3-Day Viability Efficacy
[6] = tested on: HRE–bla ME-180 cells; test: Viability (BLA): CellTiter-Glo counter screen in HRE–bla cells; type: cell-based, human; conditions: for IC50: 1% O2, 18 h; for Viability (BLA) confirmatory IC50: Table S7, 1% O2, 18 h
[7] = tested on: co-cultures of human aortic endothelial cells and human mesenchymal stem cells; test: In vitro angiogenesis co-culture assay (tube formation); type: cell-based; conditions: three-day exposure; for IC50 / Emax: Homo sapiens, 72 h, Table 1; for IC50: tube formation; for Emax: percentage of inhibition compared to DMSO controls, read-out: Angiogenesis Efficacy (converted)
[8] = ME-180, Table S7, confirmatory screen, read-out: HRE–bla confirmatory Efficacy
[9] = ME-180, Table S7, confirmatory screen, read-out: HRE–bla confirmatory IC50
[10] = ME-180, 72 h, Table S8, 3 days, read-out: ME-180 3-Day Viability IC50
[11] = Table S2, validation, read-out: Pathway inhibitors (validation) HIF-1α–NanoLuc Activity Efficacy
[12] = Table S2, validation, read-out: Pathway inhibitors (validation) HIF-1α–NanoLuc Activity IC50
[13] = Table S7, confirmatory screen, read-out: HIF-1α–NanoLuc confirmatory Efficacy
[14] = HCT-116, 72 h, Table S8, 3 days
[15] = HCT-116, 72 h, Table S8, 3 days, read-out: HCT116 3-Day Viability IC50
[16] = Homo sapiens, ME-180, Table S7, confirmatory screen
[17] = 18 h, read-out: IC50 (primary screen, HIF-1α–NanoLuc assay)
[18] = read-out: Efficacy (primary screen, HIF-1α–NanoLuc assay)
[19] = read-out: HIF-1α–NanoLuc confirmatory Efficacy
[20] = read-out: HIF-1α–NanoLuc confirmatory IC50
[21] = read-out: HIF-1α–NanoLuc primary Efficacy
[22] = ME-180, Table 1, percentage of inhibition compared to DMSO controls, read-out: HRE-bla Efficacy (converted)
[23] = Table 1, ME-180 cells, 1% O2, 18 h, read-out: HRE-bla IC50
[24] = ME-180, Table 1, 72 h, read-out: 72-hr Viability ME-180 IC50
[25] = HCT-116, Table 1, 72 h, read-out: 72-hr Viability HCT116 IC50

Row | SMILES | IC50 [1, 9] [nM] | IC50 [7] [nM] | IC50 [1, 23] [nM] | IC50 [2, 24] [nM] | Emax [1, 8] [%] | Emax ([2]; ME-180, 72 h, Table S8, 3 days) [%] | IC50 [2, 10] [nM] | Emax [3, 13] [%] | Viability (Luc) confirmatory IC50 [4] | Emax [5, 14] [%] | IC50 [5, 15] [nM] | IC50 [6, 16] [nM] | Emax [7] [%] | Emax [1, 22] [%] | Viability (BLA) confirmatory IC50 [6] | other results
1 | C[C@H]1O[C@@H](O[C@H]2[C@@H](O)C[C@H](O[C@H]3[C@@H](O)C[C@H](O[C@H]4CC[C@@]5(C)[C@H](CC[C@@H]6[C@@H]5CC[C@]5(C)[C@@H](C7=CC(=O)OC7)CC[C@]65O)C4)O[C@@H]3C)O[C@@H]2C)C[C@H](O)[C@@H]1O [Digitoxin] | 30 ± 10 | – | – | – | 97 | 101 ± 4 | 90 ± 20 | – | Inactive | 97 ± 8 | 2290 ± 3130 | 90 ± 30 | – | – | – | IC50 [3, 17]: 30 nM; Emax [3, 18]: 124%; Emax [3, 19]: 101 ± 1%; IC50 [3, 20]: 110 ± 10 nM; Emax [3, 21]: 124%
2 | O=c1cc(N2CCOCC2)oc2c(-c3ccccc3)cccc12 [LY-294002] | 12000 ± 2250 | – | – | – | 35 ± 8 | 73 ± 4 | 15400 ± 1040 | 50 ± 9 | Inactive | – | – | – | – | – | Inactive | Emax [3, 11]: 50 ± 9%; IC50 [3, 12]: 14600 ± 3540 nM; HCT116 3-Day Viability IC50 ([5]; Table S8, 3 days): Inactive
3 | CC[C@@]1(O)C(=O)OCc2c1cc1n(c2=O)Cc2cc3ccccc3nc2-1 [Camptothecin] | – | 0.27 ± 0.31 | 200 ± 60 | 40 | 84 ± 1 | – | – | – | – | – | – | – | 134 | 84 | Inactive | IC50 [5, 25]: 1000 ± 290 nM
4 | Nc1ncn([C@@H]2O[C@H](CO)[C@@H](O)[C@H]2O)c(=O)n1 [5-Azacitidine] | – | 4060 ± 1490 | 11000 ± 750 | 18600 | 94 ± 2 | – | – | – | – | – | – | – | 80 | 94 | Inactive | IC50 [5, 25]: 13300 ± 1520 nM
5 | C[C@@H]1O[C@@H](O[C@@H]2C=C3CC[C@@H]4[C@H](CC[C@]5(C)[C@@H](c6ccc(=O)oc6)CC[C@]45O)[C@@]3(C)CC2)[C@H](O)[C@H](O)[C@H]1O [Proscillaridin A] | 10 | – | – | – | 93 ± 3 | 98 ± 2 | 20 | – | Inactive | 87 ± 20 | 90 ± 30 | 20 | – | – | – | IC50 [3, 17]: 10 nM; Emax [3, 18]: 101%; Emax [3, 19]: 103 ± 3%; IC50 [3, 20]: 10 nM; Emax [3, 21]: 101%; IC50 ([3]; read-out: HIF-1α–NanoLuc primary IC50): 10 nM

The next lines start with results.

Row | IC50 [1, 9] [nM] | IC50 [7] [nM] | IC50 [1, 23] [nM] | IC50 [2, 24] [nM] | SMILES | Emax [1, 8] [%] | Emax ([2]; ME-180, 72 h, Table S8, 3 days) [%] | IC50 [2, 10] [nM] | Emax [3, 13] [%] | Viability (Luc) confirmatory IC50 [4] | Emax [5, 14] [%] | IC50 [5, 15] [nM] | IC50 [6, 16] [nM] | Emax [7] [%] | Emax [1, 22] [%] | Viability (BLA) confirmatory IC50 [6] | other results
6 | 4100 ± 700 | – | – | – | CCCS(=O)(=O)Nc1ccc(F)c(C(=O)c2c[nH]c3ncc(-c4ccc(Cl)cc4)cc23)c1F [Vemurafenib] | 75 ± 11 | 92 ± 5 | 14400 ± 1970 | 66 ± 6 | Inactive | 63 ± 4 | 31800 ± 9410 | 16000 ± 8130 | – | – | – | Emax [3, 11]: 66 ± 6%; IC50 [3, 12]: 13600 ± 6380 nM; Emax ([6]; Homo sapiens, ME-180, Table S7, confirmatory screen, read-out: Viability (BLA) confirmatory Efficacy): 27 ± 10%
7 | 1670 ± 460 | 40 ± 30 | 230 ± 50 | 2040 | O=C(Nc1ccc([N+](=O)[O-])cc1Cl)c1cc(Cl)ccc1O [Niclosamide] | 84 ± 6 | – | – | – | – | 83 ± 6 | – | 1630 ± 2580 | 87 | 91 | – | –
8 | – | 110 ± 60 | 210 ± 50 | 1820 ± 740 | COc1c(C)c2c(c(O)c1C/C=C(\C)CCC(=O)OCCN1CCOCC1)C(=O)OC2 [Mycophenolate mofetil] | 58 ± 4 | – | – | 59 ± 5 | Inactive | – | – | 530 | 93 | 58 | – | Angiogenesis inhibition, result in words ([7]; co-culture assay): submicromolar concentrations; IC50 ([3]; HCT-116, Table 1, HCT116 reporter cells, hypoxia 1% O2, 18 h, confirmatory, read-out: HIF-1α-NanoLuc IC50): 1580 ± 450 nM; Emax ([3]; Table 1, percentage of inhibition compared to DMSO controls, read-out: HIF-1α-NanoLuc Efficacy (converted)): 59%; Emax ([3]; Table S7, primary screen, read-out: HIF-1α–NanoLuc primary Efficacy): 61%; IC50 ([3]; Table S7, primary screen, read-out: HIF-1α–NanoLuc primary IC50): 330 nM; 72-hr Viability HCT116 IC50 ([5]; Table 1, 72 h): Inactive
